Measured values published in ChEMBL document CHEMBL1201862, “PubChem BioAssay data set” (2004).
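Test compounds were applied to cells in 96-well plates for 48 hours at 5 doses. GI50 marks 50% less growth.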 Active and inactive are the calls of the source. Cut-off read from the data, not from the text of the source: active = GI50 up to about 1.1 µM and inactive = higher.

Columns and labels:
Experiment in all cases: NCI tumour cell line growth inhibition, 48 h
U-251 = system: U-251
Hs-578T = system: Hs-578T
NCI-H226 = system: NCI-H226
A498 = system: A498
M14 = system: M14
CCRF-CEM = system: CCRF-CEM
SK-MEL-5 = system: SK-MEL-5
OVCAR-3 = system: OVCAR-3
HCT-15 = system: HCT-15
A549 = system: A549
K562 = system: K562
COLO 205 = system: COLO 205
SK-MEL-28 = system: SK-MEL-28
HCT-116 = system: HCT-116
IGROV-1 = system: IGROV-1
UACC-62 = system: UACC-62
OVCAR-5 = system: OVCAR-5
786-0 = system: 786-0
RXF 393 = system: RXF 393
RPMI-8226 = system: RPMI-8226
KM12 = system: KM12
NCI-H23 = system: NCI-H23
SF-295 = system: SF-295
SN12C = system: SN12C
HCC 2998 = system: HCC 2998
LOX IMVI = system: LOX IMVI
SNB-19 = system: SNB-19
UACC-257 = system: UACC-257
PC-3 = system: PC-3
NCI-H460 = system: NCI-H460
MDA-MB-435 = system: MDA-MB-435
CAKI-1 = system: CAKI-1
SF-268 = system: SF-268
MDA-N = system: MDA-N
NCI-H522 = system: NCI-H522
HOP-62 = system: HOP-62
SW-620 = system: SW-620
MCF7 = system: MCF7
MDA-MB-231 = system: MDA-MB-231
ACHN = system: ACHN
SR = system: SR
MOLT-4 = system: MOLT-4
HOP-92 = system: HOP-92
OVCAR-4 = system: OVCAR-4
DU-145 = system: DU-145
TK-10 = system: TK-10
SF-539 = system: SF-539
NCI/ADR-RES = system: NCI/ADR-RES
SK-MEL-2 = system: SK-MEL-2
HL-60 = system: HL-60
UO-31 = system: UO-31
BT-549 = system: BT-549
EKVX = system: EKVX
Malme-3M = system: Malme-3M
HT-29 = system: HT-29
OVCAR-8 = system: OVCAR-8
SNB-75 = system: SNB-75
T47D = system: T47D
SK-OV-3 = system: SK-OV-3

Measured: GI50

CCOC(=O)c1ncn(CCc2ccc(Cl)cc2)c1C
> 100 µM: HCT-15
inactive: U-251 > 100 µM | Hs-578T > 100 µM | NCI-H226 > 100 µM | A498 > 100 µM | M14 26.3 µM | CCRF-CEM > 100 µM | SK-MEL-5 85.9 µM | OVCAR-3 > 100 µM | A549 > 100 µM | K562 > 100 µM | COLO 205 > 100 µM | SK-MEL-28 > 100 µM | HCT-116 > 100 µM | IGROV-1 > 100 µM | UACC-62 42.4 µM | OVCAR-5 > 100 µM | 786-0 > 100 µM | RXF 393 > 100 µM | RPMI-8226 62.7 µM | KM12 > 100 µM | NCI-H23 > 100 µM | SF-295 70.8 µM | SN12C > 100 µM | HCC 2998 > 100 µM | LOX IMVI > 100 µM | SNB-19 > 100 µM | UACC-257 > 100 µM | PC-3 > 100 µM | NCI-H460 > 100 µM | MDA-MB-435 > 100 µM | CAKI-1 80.2 µM | SF-268 92.9 µM | MDA-N 80.5 µM | NCI-H522 34.4 µM | HOP-62 > 100 µM | SW-620 > 100 µM | MCF7 > 100 µM | MDA-MB-231 > 100 µM | ACHN > 100 µM | SR 68.2 µM | MOLT-4 > 100 µM | HOP-92 > 100 µM | OVCAR-4 56.6 µM | DU-145 > 100 µM | TK-10 > 100 µM | SF-539 > 100 µM | NCI/ADR-RES 70.8 µM | SK-MEL-2 > 100 µM | HL-60 > 100 µM | UO-31 34.5 µM | BT-549 > 100 µM | EKVX > 100 µM | Malme-3M > 100 µM | HT-29 > 100 µM | OVCAR-8 > 100 µM

CCOP(=O)(OCC)C1C(CO)OC(n2ccc(=O)[nH]c2=O)C1O (configuration not stated)
> 100 µM: HCT-15
inactive: Hs-578T > 100 µM | NCI-H226 > 100 µM | A498 > 100 µM | M14 > 100 µM | CCRF-CEM > 10 µM | SK-MEL-5 > 100 µM | OVCAR-3 > 100 µM | A549 > 100 µM | K562 > 100 µM | SK-MEL-28 > 100 µM | HCT-116 > 100 µM | IGROV-1 > 100 µM | UACC-62 > 100 µM | 786-0 > 100 µM | RXF 393 > 100 µM | RPMI-8226 > 100 µM | KM12 > 100 µM | SF-295 > 100 µM | SN12C > 100 µM | HCC 2998 78.7 µM | LOX IMVI > 100 µM | SNB-19 > 100 µM | UACC-257 > 100 µM | PC-3 > 100 µM | NCI-H460 > 100 µM | CAKI-1 > 100 µM | SF-268 > 100 µM | MDA-N > 100 µM | SNB-75 35.9 µM | NCI-H522 > 100 µM | HOP-62 > 100 µM | SW-620 > 100 µM | MDA-MB-231 > 100 µM | ACHN > 100 µM | SR > 100 µM | MOLT-4 > 10 µM | HOP-92 > 100 µM | OVCAR-4 74.5 µM | TK-10 > 100 µM | SF-539 > 100 µM | SK-MEL-2 > 100 µM | HL-60 > 100 µM | UO-31 > 100 µM | BT-549 > 100 µM | T47D > 100 µM | EKVX > 100 µM | Malme-3M > 100 µM | HT-29 > 100 µM | OVCAR-8 > 100 µM

NS(=O)(=O)c1cccc(NC(=S)NC(=O)Nc2ccc(Cl)c(Cl)c2)c1
17.3 µM: HCT-15
inactive: U-251 22.3 µM | Hs-578T 17 µM | A498 12.7 µM | M14 14.2 µM | CCRF-CEM 30.2 µM | SK-MEL-5 17.1 µM | A549 20.5 µM | K562 16.2 µM | COLO 205 20 µM | SK-MEL-28 20.4 µM | HCT-116 17.1 µM | IGROV-1 20 µM | UACC-62 13.3 µM | OVCAR-5 25 µM | 786-0 15.9 µM | RXF 393 22.8 µM | RPMI-8226 16.9 µM | KM12 15.8 µM | NCI-H23 15.8 µM | SF-295 22.6 µM | SN12C 17.7 µM | LOX IMVI 16.7 µM | SNB-19 21.2 µM | UACC-257 27.4 µM | PC-3 22.4 µM | NCI-H460 16.7 µM | SF-268 22.5 µM | MDA-N 18.6 µM | SNB-75 18.3 µM | NCI-H522 12.8 µM | HOP-62 15.5 µM | SW-620 19 µM | MCF7 18.3 µM | MDA-MB-231 17.7 µM | ACHN 19.5 µM | MOLT-4 12 µM | HOP-92 24 µM | OVCAR-4 22.2 µM | DU-145 30.1 µM | TK-10 32.5 µM | SF-539 20 µM | NCI/ADR-RES 15.9 µM | SK-MEL-2 23.2 µM | UO-31 16.6 µM | BT-549 16.1 µM | SK-OV-3 21.4 µM | T47D 18.1 µM | Malme-3M 11.5 µM | HT-29 25.9 µM | OVCAR-8 17.3 µM
